Data: patent US8877785B2, “Methods and compositions for enhancing sensitivity of cytotoxic drugs with timely combinatorial therapy with carboxyamidotriazole orotate” (Tactical Therapeutics Inc, priority 2009, dated 2014)

Key:
[1] = given in combination (CTO Q1Dx14, temozolomide Q4Dx3); MTD = dose without death and no more than 20% mean body weight loss
Text: The purpose of the first experiment was to evaluate the tolerance of female athymic NCr-nu/nu mice to the combination treatment of 5-amino-1-(4-(4-chlorobenzoyl)-3,5-dichlorobenzyl)-1,2,3-triazole-4-carboxyamide orotate (CTO) and a cytotoxic chemotherapeutic agent selected from the group consisting of temozolomide, 5-FU, methotrexate, doxorubicin and daunorubicin.
Polyethylene glycol (PEG 400, MW 400) was purchased from Aldrich Chemistry. Deionized water was purchased from LabChem, Inc. Klucel (hydroxypropyl cellulose) was purchased from Aldrich. Saline (physiological saline solution, for animal use only) was purchased from Nova-Teck, Inc. Tween 80 (T80, polysorbate 80) was purchased from Fisher Scientific. CTO (MW 580.76) was stored at room temperature protected from light upon receipt. CTO was formulated once a week (on Days 1 and 8) at a concentration of 51.3 mg/mL in 40% PEG 400 in deionized water. Temozolomide® (temozolomide, Schering Co., 20 mg/capsule) was prepared on each day treatment by adding several drops of T80 to the powder, and then adding 0.3% Klucel in saline to yield a concentration of 4.5 mg/mL.
The study consisted of four groups of five mice per group for a total of 25 mice on Day 1. […]

[2] = tested on: human LOX IMVI melanoma xenografts; experiment: Antitumor activity against SC-implanted human LOX IMVI melanoma xenografts (experiment TTI-6A); format: in vivo, mice
Text: The purpose of the experiment TTI-6A was to evaluate the antitumor activity of CTO when administered in combination with temozolomide against subcutaneously (SC)-implanted human LOX IMVI melanoma xenografts in female, athymic NCr-nu/nu mice. Female six-week-old athymic NCr-nu/nu mice were purchased from Charles River Laboratories (Wilmington, Mass.). Human LOX IMVI melanoma cells were maintained as an ascites passage. […] The day of tumor fragment implantation was designated as Day 0.
(§1) CTO was administered to mice by exact individual animal's body weight on each day of treatment, with the injection volume being 0.1 mL/10 g body weight. temozolomide dosing formulations were administered to mice within 30 minutes of formulation by exact individual body weight on each day of treatment, with the injection volume being 0.2 mL/10 g body weight.
The study consisted of nine groups of ten mice per group. Animals in Group 1 were treated with the CTO vehicle (40% PEG 400 in deionized water) on a Q1Dx14 schedule (Days 6-19) in combination with the temozolomide vehicle (0.3% Klucel in saline), which was administered on a Q4Dx3 schedule (Days 6, 10, and 14). Animals in Groups 2 and 3 were treated with CTO at doses of 513 and 342 mg/kg/dose, respectively, on a Q1Dx14 schedule. Animals in Groups 4 and 5 were treated with temozolomide at, doses of 90 and 60 mg/kg/dose, respectively, on a Q4Dx3 schedule. Animals in Groups 6 and 7 were treated with CTO on a Q1Dx14 schedule at doses of 513 and 342 mg/kg/dose, respectively, in combination with temozolomide which was administered at a dose of 90 mg/kg/dose on a Q4Dx3 schedule. Animals in Groups 8 and 9 were treated with CTO on a Q1Dx14 schedule at doses of 513 and 342 mg/kg/dose, respectively, in combination with temozolomide which was administered at a dose of 60 mg/kg/dose on a Q4Dx3 schedule.
The SC tumors were measured and the animals were weighed two times a week. Tumor volume was determined by the formula for an ellipsoid sphere: L×W^2/2=mm^3, where L and W refer to the larger and smaller perpendicular dimensions collected at each measurement. The experiment was terminated on Day 35.
Parameters Evaluated—Number of nonspecific deaths, number of complete tumor regressions, number of tumor-free survivors on Day 35, and the median time for the tumors to reach four tumor mass doublings were determined. Comparison of the median tumor weight in the treatment groups to the median tumor weight in the control group (T/C×100%) on Day 19 (the last day of treatment with CTO and the last day of data collection when mice in the control group were still alive) was used for an additional evaluation of the antitumor efficacy of the combination treatments. […] FIG. 1.

[3] = Body weight loss and deaths in LOX IMVI tumor-bearing athymic NCr-nu/nu mice (experiment TTI-6A); format: in vivo
Text: The purpose of the experiment TTI-6A was to evaluate the antitumor activity of CTO when administered in combination with temozolomide against subcutaneously (SC)-implanted human LOX IMVI melanoma xenografts in female, athymic NCr-nu/nu mice. Female six-week-old athymic NCr-nu/nu mice were purchased from Charles River Laboratories (Wilmington, Mass.). Human LOX IMVI melanoma cells were maintained as an ascites passage. Each mouse was implanted SC near the right flank with one million (1×10^6) of the LOX IMVI human melanoma cell from an in vivo passage using a 23 g needle. The day of tumor fragment implantation was designated as Day 0. Individual tumors of 90 animals grew to 126-198 mg in weight (126-198 mm^3 in size) on Day 6 after tumor implantation (Jul. 20, 2011), the day of treatment initiation. Those animals selected with tumors in the proper size range were assigned to nine treatment groups so that the mean tumor weights in all groups on Day 6 were as close to each other as possible (mean tumor weights being 165 or 166 mg, median tumor weights ranging from 162 to 176 mg).
as §1
The study consisted of nine groups of ten mice per group. […]
The SC tumors were measured and the animals were weighed two times a week. Tumor volume was determined by the formula for an ellipsoid sphere: L×W^2/2=mm^3, where L and W refer to the larger and smaller perpendicular dimensions collected at each measurement. […]
Parameters Evaluated—Number of nonspecific deaths, number of complete tumor regressions, number of tumor-free survivors on Day 35, and the median time for the tumors to reach four tumor mass doublings were determined. […]

[4] = Group 4: temozolomide 90 mg/kg/dose oral Q4Dx3 alone
[5] = Group 5: temozolomide 60 mg/kg/dose oral Q4Dx3 alone

Compound	maximum tolerated dose (MTD) [1]	inhibition of the growth of the human LOX IMVI melanoma xenografts (in words) ([2]; CTO 513 or 342 mg/kg/dose oral for fourteen consecutive days)	median tumor growth delay ([2]; Group 2: CTO 513 mg/kg/dose Q1Dx14 alone)	T/C value (median tumor weight treated/control x100%) on Day 19 ([2]; Group 2: CTO 513 mg/kg/dose oral Q1Dx14 alone)	median tumor growth delay ([2]; Group 3: CTO 342 mg/kg/dose Q1Dx14 alone)	T/C value (median tumor weight treated/control x100%) on Day 19 ([2]; Group 3: CTO 342 mg/kg/dose oral Q1Dx14 alone)	maximum mean body weight loss [3, 4]	maximum mean body weight loss [3, 5]	maximum mean body weight loss ([3]; Groups 4 and 5: temozolomide 90 and 60 mg/kg/dose oral Q4Dx3 alone, both groups)	delay in the growth of the median tumor ([2]; Group 4: temozolomide 90 mg/kg/dose Q4Dx3 alone)	T/C value (median tumor weight treated/control x100%) on Day 19 [2, 4]	median time for the tumor to reach four tumor mass doublings [2, 4]	delay in the growth of the median tumor ([2]; Group 5: temozolomide 60 mg/kg/dose Q4Dx3 alone)	T/C value (median tumor weight treated/control x100%) on Day 19 [2, 5]	median time for the tumor to reach four tumor mass doublings [2, 5]
5-amino-1-(4-(4-chlorobenzoyl)-3,5-dichlorobenzyl)-1,2,3-triazole-4-carboxyamide orotate [CTO]	above 513 mg/kg/dose	measurable inhibition	3.1 days	65%	1.6 days	70%									
Cn1nnc2c(C(N)=O)ncn2c1=O [temozolomide]	> 90 mg/kg/dose						7%	7%	1.6 to 1.8 g	8.5 days	36%	17.2 days	3.6 days	57%	12.3 days
